Measurements from patent US12023335B2, “Method for treating pancreatic cancer” (PTC THERAPEUTICS, INC., priority 2018, dated 2024).
Entries after “also recorded” stand apart in the source; their conditions may differ.

Experiments:
[1] = biological target: T1, P-glycoprotein (Homo sapiens, UniProt P08183); experiment: P-glycoprotein substrate activity experiment (CC50 ratio MDCK-P-gp vs MDCK-WT); assay type: in vitro ADME; settings: 72 hours, CellTiter-Glo (FIG. 4b)
T1 construct: host or cells: MDCKII-mdr1 (canine kidney MDCKII cells; MDCKII-wt as control)
T1 sequence (P08183 whole entry): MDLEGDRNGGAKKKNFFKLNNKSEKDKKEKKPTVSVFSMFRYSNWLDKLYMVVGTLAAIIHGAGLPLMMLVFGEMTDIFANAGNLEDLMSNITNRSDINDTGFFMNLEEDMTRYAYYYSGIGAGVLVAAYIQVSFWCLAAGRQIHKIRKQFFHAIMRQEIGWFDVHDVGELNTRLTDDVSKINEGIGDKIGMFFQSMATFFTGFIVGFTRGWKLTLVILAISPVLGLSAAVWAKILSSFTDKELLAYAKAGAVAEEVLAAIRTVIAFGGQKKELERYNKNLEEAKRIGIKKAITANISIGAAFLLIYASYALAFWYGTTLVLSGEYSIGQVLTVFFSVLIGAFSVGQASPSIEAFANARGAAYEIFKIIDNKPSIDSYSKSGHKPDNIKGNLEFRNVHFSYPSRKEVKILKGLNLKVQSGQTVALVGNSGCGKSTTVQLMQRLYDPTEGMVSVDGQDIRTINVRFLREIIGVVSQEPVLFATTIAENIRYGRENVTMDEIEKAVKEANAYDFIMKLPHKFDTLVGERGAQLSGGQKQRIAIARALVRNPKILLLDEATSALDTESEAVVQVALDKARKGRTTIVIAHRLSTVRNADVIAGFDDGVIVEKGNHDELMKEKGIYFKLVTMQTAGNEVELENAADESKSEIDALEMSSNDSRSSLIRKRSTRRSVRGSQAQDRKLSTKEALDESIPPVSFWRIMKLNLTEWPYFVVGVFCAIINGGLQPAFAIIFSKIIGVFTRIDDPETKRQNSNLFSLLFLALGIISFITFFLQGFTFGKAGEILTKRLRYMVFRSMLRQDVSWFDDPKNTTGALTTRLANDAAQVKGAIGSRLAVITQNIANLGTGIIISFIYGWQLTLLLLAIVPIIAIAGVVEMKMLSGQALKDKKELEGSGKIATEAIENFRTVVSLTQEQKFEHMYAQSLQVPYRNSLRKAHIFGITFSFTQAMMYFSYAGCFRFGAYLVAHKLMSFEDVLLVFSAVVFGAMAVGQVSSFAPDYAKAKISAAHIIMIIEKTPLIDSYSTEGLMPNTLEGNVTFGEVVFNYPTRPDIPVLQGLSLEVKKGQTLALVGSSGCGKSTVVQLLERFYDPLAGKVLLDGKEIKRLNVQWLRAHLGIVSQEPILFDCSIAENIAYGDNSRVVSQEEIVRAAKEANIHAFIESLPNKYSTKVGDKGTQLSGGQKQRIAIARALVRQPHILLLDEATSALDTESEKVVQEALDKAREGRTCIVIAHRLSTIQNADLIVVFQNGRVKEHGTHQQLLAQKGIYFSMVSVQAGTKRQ
Method: MDCKII-mdr1 and MDCKII-wt cells were purchased from the Netherlands Cancer Institute, NKI-AVL. The cells were cultivated in Dulbecco's modified essential medium (DMEM), supplemented with 10% FBS and 1% Penn-Strep, and used between passage 3-9. Cells were seeded at a density of 3×10^3 cells/well in 96-well tissue culture treated plates. After 4 hours to allow cells to attach, cells were treated with test compound in the presence or absence of the P-glycoprotein inhibitor Valspodar. The plates were incubated at 37° C., 5% CO2 for 72 hours and ATP was measured vialuminescence using CellTiter-Glo® reagent (Promega). (FIG. 4b)

[2] = system: J1002VEH and J1002TAM cells; experiment: Viability and dose response of J1002VEH and J1002TAM cells (AlamarBlue); assay type: cell-based, mouse
Method: For proliferation curves, cells were plated in 96-well plates (Corning, 3603) and allowed to seed overnight. Replicate plates were plated for each time point since viability measurements were an endpoint procedure. The following day, cells were treated with Compound at indicated concentrations and treated with DMSO at the highest used concentration (always below 0.003%). Cells were treated for 96 hours, and viability was determined every 24 hours using AlamarBlue reagent (BioRad, BUF012B). Briefly, 10 μL of AlamarBlue was added to each well (100 μL), mixed briefly, and allowed to incubate at 37° C. and 5% CO2 for 4 hours. Following incubation, fluorescence was measured on a Promega multimode microplate reader. For analysis, background levels were subtracted from raw results, which were then normalized to be represented as a fold change compared to DMSO-treated cells on Day 0. All assays were carried out in at least triplicate with 4-8 technical replicates per treatment group, per experiment. (FIG. 1a and FIG. 10b)
For dose response curves, cells were plated in 96-well plates (Corning, 3603) and allowed to seed overnight. The following day, cells were treated with Compound 1. […] Cells were treated for 72 hours and then viability was determined using AlamarBlue reagent (BioRad, BUF012B). […] Following incubation, fluorescence was measured on a Promega multimode microplate reader. […]

[3] = system: tubulin; experiment: Immunocytochemistry of tubulin and DAPI in Aspc1 cells; assay type: cell-based, human; settings: 24 hours, relative to vehicle (FIGS. 11c, 11d)
Method: Cells were seeded onto glass coverslips in 12-well plates. Coverslips were prepared by soaking in 1N HCl (60° C., 6 hours), washing in 70% ethanol, and coating with poly-l-lysine (Sigma, P5899) according to manufacturer's instructions. Cells were seeded such that they would be 50% confluent the following day. Cells were then treated with vehicle (DMSO, <0.003%) or 1 μM Compound 1 and incubated for 24 hours. Following treatment, cells were washed with TBS and free tubulin was extracted with Brinkley Buffer 1980 (80 mM PIPES pH 6.8, 1 mM MgCl2, 1 mM EGTA) supplemented with 4 mM EGTA and 0.5% Triton-X (30 seconds). After extraction, cells were fixed for 20 minutes in 4% formaldehyde diluted in Cytoskeleton Buffer (10 mM MES pH 6.1, 138 mM KCl, 3 mM MgCl2, 2 mM EGTA) supplemented with 0.32M sucrose. […]
Confocal imaging was performed using an A1 laser scanning confocal attachment on an Eclipse Ti microscope stand using a 60x/1.49 ApoTIRF oil-immersion objective and standard lasers and filter sets (Nikon Instruments, Melville, N.Y.). […] Images were visualized, analyzed, and prepared for publication using the Fiji distribution of ImageJ (Schindelin J, Arganda-Carreras I, Frise E, et al. Fiji: an open-source platform for biological-image analysis. Nature Methods 2012; 9:676-682). […]

Cc1nc2ccc(F)cc2n1-c1nc(N)c(F)c(Nc2ccc(C(F)(F)F)cc2)n1 [Compound 1, 5-fluoro-2-(6-fluoro-2-methyl-1H-benzo[d]imidazol-1-yl)-N4-[4-(trifluoromethyl)phenyl]pyrimidine-4,6-diamine]
PGP substrate activity (ratio of CC50 values MDCK-P-gp vs MDCK-WT) [1]: lack of P-glycoprotein (PGP) substrate activity; also recorded: do not function as a PGP substrate | relative viability of J1002VEH and J1002TAM cells ([2]; 0.1 μM or 1.0 μM over 96 hours (FIG. 10b)): dose and time-dependent decrease in viability of cells dependent on BMI-1 protein expression | dose response in J1002VEH and J1002TAM cells ([2]; 72 hours (FIG. 10c)): sub-M activity toward reduction in BMI-1 protein expression | tubulin staining in Aspc1 cells [3]: significant reduction in tubulin formation
